According to US11998533B2, “Pharmaceutical compositions comprising LTV-17 and beta-lactamase inhibitors and their use as antibacterial agents” (FEDORA PHARMACEUTICALS INC., priority 2021, dated 2024):

Columns and labels:
Type in all cases: cell-based
Klebsiella pneumoniae = test: MIC broth microdilution, Klebsiella pneumoniae isolate; conditions: isolate 1167846, CMY-DHA, LTV-17 alone
Description: (§1) Bacterial isolates: Representative resistant strains of Escherichia coli, Citrobacter freundii, Enterobacter cloacae, Klebsiella pneumoniae, and Proteus mirabilis harboring class-C β-lactamase producers were used to test for the synergistic effect of adding a β-lactamase inhibitor (II^j) to the antibiotic LTV-17 (I) (Table 1).
(§2) Minimum inhibitory concentration (MIC) test procedure: All antibiotics were tested by both the broth microdilution methods according to the Clinical and Laboratory Standards Institute (CLSI) recommendations (M07), and a modified CLSI method that included iron-depleted CA-MHB protocol. The MIC was defined as the lowest concentration of the antibiotic to produce clear wells in the 96-well plates. MIC interpretations were based on the CLSI M100-S23 (2013) and European Committee on Antimicrobial Susceptibility Testing (EUCAST; 2013) breakpoint criteria. Synergistic activity was calculated based on the number of two-fold dilution reduction of the MIC using LTV-17 (I) plus β-lactamase inhibitor Avibactam (II^j) compared to MIC of LTV-17 (I) tested alone against the same strains. The higher the number of two-fold reduction, the stronger the synergy is.
(§3) Avibactam was tested at a fixed concentration of 4 μg/mL.

Proteus mirabilis = test: MIC broth microdilution, Proteus mirabilis isolate; conditions: isolate 1159308, CMY-DHA, LTV-17 alone
Description: as §1, §2, §3

[1] = system: Citrobacter freundii species complex; test: MIC broth microdilution, Citrobacter freundii species complex isolate; conditions: isolate 1056585, Elevated AmpC, LTV-17 alone
Description: as §1, §2, §3

Escherichia coli = test: MIC broth microdilution, Escherichia coli isolates; conditions: LTV-17 alone
Description: as §1, §2, §3

[2] = system: Enterobacter cloacae species complex; test: MIC broth microdilution, Enterobacter cloacae species complex isolates; conditions: LTV-17 alone
Description: as §1, §2, §3

With `CC(C)(O/N=C(\C(=O)N[C@H]1CON(C2(C(=O)O)C[C@H](N3C(=O)c4cc(O)c(O)cc4C3=O)C(=O)O2)C1=O)c1csc(N)n1)C(=O)O` (stereo partly drawn) [LTV-17, (4S)-2-[(4S)-4-{[(2Z)-2-(2-amino-1,3-thiazol-4-yl)-2-{[(2-carboxypropan-2-yl)oxy]imino}acetyl]amino}-3-oxo-1,2-oxazolidin-2-yl]-4-(5,6-dihydroxy-1,3-dioxo-1,3-dihydro-2H-isoindol-2-yl)-5-oxooxolane-2-carboxylic acid] the MIC (Klebsiella pneumoniae) was 1 µg/mL, the MIC (Proteus mirabilis) was 4 µg/mL and the MIC [1] was 0.5 µg/mL. The MIC (Escherichia coli; isolate 827002, Elevated AmpC) was 0.03 µg/mL, the MIC (Escherichia coli; isolate 841741, Elevated AmpC) was 0.25 µg/mL and the MIC (Escherichia coli; isolate 850348, Elevated AmpC) was 1 µg/mL. The MIC (Escherichia coli; isolate 850361, Elevated AmpC) was 0.06 µg/mL, the MIC (Escherichia coli; isolate 1043714, Elevated AmpC) was 0.06 µg/mL and the MIC (Escherichia coli; isolate 1047951, Elevated AmpC) was 0.12 µg/mL. For the same compound, the MIC (Escherichia coli; isolate 1152443, CMY-DHA) was 0.5 µg/mL, the MIC (Escherichia coli; isolate 1160345, CMY-DHA) was 0.5 µg/mL and the MIC (Escherichia coli; isolate 1160670, CMY-DHA) was 0.12 µg/mL. It also gave an MIC (Escherichia coli; isolate 1165173, CMY-DHA) of 0.25 µg/mL, an MIC (Escherichia coli; isolate 1165490, CMY-DHA) of 0.5 µg/mL and an MIC (Escherichia coli; isolate 1165546, CMY-DHA) of 0.5 µg/mL. The MIC (Escherichia coli; isolate 1167103, CMY-DHA) was 0.5 µg/mL, the MIC (Escherichia coli; isolate 1167174, CMY-DHA) was 4 µg/mL and the MIC ([2]; isolate 552115, Elevated AmpC) was 2 µg/mL. For the same compound, the MIC ([2]; isolate 1057610, Elevated AmpC) was 0.25 µg/mL and the MIC ([2]; isolate 1083996, Elevated AmpC) was 0.5 µg/mL.
